Experiments:
KRAS mutation PDX tumor = assay: PDX model, tumor size and weight; assay type: in vivo, BALB/c nude mice; details: compared with KRAS wildtype tumor model; 200 mg/kg in water, 30 d, FIG. 7
Protocol: Use of the PDX model: tumor tissues from the clinical KRAS wildtype and mutation CRC patients were taken, the tumor cells were cultured with a digestion process; after identifying the KRAS mutation, the tumor cells were planted in an axillary fossa area of nude mice.
1) Collection of patients' tumor specimens: cancer tissues with non-necrotic edges were taken from specimens obtained after excision, and soaked into a PRMI1640 culture solution containing 5% fetal calf serum, 1×penicillin and streptomycin double-antibodies, and then transported at 4° C.;
2) the tumor tissues were cut into small pieces having a size of about 2×2×2 mm on a super clean bench, and cleaned for 3 times with the above culture solution to remove extravasated blood; […]
7) when the transplanted tumor grew to 100-200 mm^3, the nude mice were administered intragastrically everyday at 9:00 a.m. for consecutive 28 d. […] The size of the transplanted tumor was measured everyday, volume (mm^3)=[length×width^2]/2;
8) the nude mice were killed 30 d layer, and tumor tissues were taken, shoot, measured, embedded and sliced.
200 mg/kg (equivalent to human 1000 mg) metformin was dissolved into water, and respectively taken by KRAS wildtype and mutation animals; then the tumor size was measured; 30 d later, the tumor tissues were killed and weighed.

[1] = system: ERK, RB, MPK, AKT, mTOR and 4E-BP1 phosphorylation in LoVo; assay: Western blot of MEK/ERK/cyclin D1/RB and PI3K/AKT/mTOR/4E-BP1 signaling; assay type: cell-based, human; details: 24 h, FIGS. 9A-C
Protocol: (§1) Western blot was used to detect the change of metformin on the related molecules of sroliferative signaling pathways MEK/ERK/cyclin D1/RB and PI3K/AKT/mTOR/4E-BP1, which clarifies the mechanism of metformin in inhibiting the proliferation of KRAS mutation CRC cells.
(§2) 1) Cells were inoculated on a culture dish and cultured to 60% of fusion degree, and treated with the addition of an agent for 24 h.
(§3) 2) Protein was collected, and washed with PBS for 3 times, then added with 100 μl 1 RSDS buffer solution (100 mmol/1 Tris-Cl pH6.8, 2% SDS, 10% glycerinum), and at this time, the cell lysis solution was sticky.
(§4) 3) The cell lysis solution was collected into a 0.5 ml centrifugal tube with a scraper, and cooked for 30 min at 100° C.
(§5) 4) The total protein extractive in the cells was subjected to protein quantification according to a BCA kit process (BIO-RAD company).
(§6) 5) The sample was treated according to a ratio of 9 μl denatured protein sample: 1 μl denatured buffer solution (β-mercaptoethanol (BME), 0.4% Bromphenol Blue), and boiled for 30 min at 100° C. for further use.
(§7) 6) A prepared SDS-PAGE gel (10% separation gel and 5% stacking gel) was taken; samples were added with 40 ug/well, and subjected gel electrophoresis for 30 min at 80V, and gel electrophoresis for 90 min at 120V. […]

[2] = system: ERK, RB, MPK, AKT, mTOR and 4E-BP1 phosphorylation in SW48; assay: as above; assay type: cell-based, human; details: 24 h, FIGS. 9A-C
Protocol: as §1, §2, §3, §4, §5, §6, §7

[3] = system: ERK and AKT signaling pathways of KRAS mutation CRC cells in PDX tumor tissues; assay: Western blot of PDX tumor tissues; assay type: in vivo, BALB/c nude mice; details: FIG. 9F
From the text: (2) Tumor tissues from PDX animals were taken and homogenated to extract protein for WB.

CN(C)C(=N)N=C(N)N [metformin]
tumor size (KRAS mutation PDX tumor): obviously inhibit
tumor weight (KRAS mutation PDX tumor): obviously inhibit
phosphorylation levels in ERK, RB, MPK, AKT, mTOR and 4E-BP1 [1]: inhibited phosphorylation levels
phosphorylation levels in ERK, RB, MPK, AKT, mTOR and 4E-BP1 [2]: no obvious change
ERK and AKT signaling pathways in PDX tumor tissues [3]: inhibits

Source: patent US20220125877A1, “METHOD FOR TREATING COLORECTAL CANCER” (SUN YAT-SEN UNIVERSITY, priority 2019, published 2022)
